Data from patent US20240342138A1, “MICROTUBULE TARGETING AGENTS” (BPGbio, Inc., priority 2023, published 2024).

Legend:
[1] = system: DU145 tumors; experiment: Prostate cancer xenograft model; format: in vivo, nude mice
Description: FIG. 12A-12E show the efficacy of Compound lin a prostate cancer xenograft model (DU145). A) In vitro potency of Compound 1 in DU145 cells as evaluated by ATPlite 1Step™ Perkin Elmer (performed by NTRC Oncolines). B) DU145 cells were implanted subcutaneously in nude mice and tumors were allowed to grow to a volume of 210 mm^3 followed by randomization of animals into three (3) groups (vehicle control, 75 mg/kg, 150 mg/kg Compound 1) with 12 animals per group. A Compound 1 solid dispersion was prepared prior to each dosing and administered by oral gavage two times a day (BID). Mean tumor volume of each group over time and the growth of tumor in each individual animal was graphed. For each individual animal of vehicle group TGI (%) was calculated based on the tumor growth inhibition of individual tumor at each given day of the study compared to the average of the group for that given day of the study. P-values were calculated using two-tailed distribution and two-sample equal variance (homoscedastic) for each group treated with Compound 1 for each given day of the study in reference to vehicle control. NS p>0.05; *p≤0.05; **p≤0.01; ***p p≤0.001; **** p≤0.0001. C) Plasma and tumor tissues from vehicle (n=11), 75 mg/kg (n=12), and 150 mg/kg (n=12) groups were harvested at the end of the study. The concentration of Compound lin the plasma or tumor tissue was plotted as a column plot (Average t SEM) or Scatter Plot with Median. D) Tumor tissues from vehicle (n=12), 75 mg/kg (n=12) and 150 mg/kg (n=12) groups were harvested at the end of the study when each animal was sacrificed. The level of two biomarkers, pHH3 and CCNB1 in each tissue was measured and graphed as the Min-to-Max plot and scatter plot of the level of each biomarker. The line in the scatter plot indicates the group mean. E) Body weight of each individual animal was measured on days 0, 2, 5, 7, 9, 12, 14, 16, 19, 21, 23, and 26 and graphed using Graphpad Prism.
(§1) Anti-tumor efficacy of Compound 1 was evaluated against three (3) different preclinical oncology mice models of colorectal cancer, prostate cancer, and lung adenocarcinoma (see Table 5 below). For this purpose, an oral formulation of Compound 1 was used.
DU145 is an epithelial cell carcinoma derived from the metastatic site (brain). DU145 cells were implanted subcutaneously in nude mice and tumors were allowed to grow to an average volume of 106 mm^3 followed by randomization into three (3) groups consisting of vehicle control, 75 mg/kg and 150 mg/kg Compound 1 (12 animals per group). A Compound 1 solid dispersion was administered by oral gavage two times a day (BID). All animals, except one animal from vehicle group, survived throughout the 26 days of the study. Any animal that left the study prior to Day 26 was eliminated from all calculations. The percentage of tumor growth inhibition (TGI %) was calculated for each individual tumor. The mean tumor volume of each group over time and the growth of tumor in each individual animal is plotted below. The percentage of tumor growth inhibition (TGI %) was calculated for each individual animal.

[2] = system: COLO205 tumors; experiment: Colorectal cancer xenograft model; format: in vivo, nude mice
Description: FIG. 11A-11E show the efficacy of Compound 1 in a colorectal cancer xenograft model (COLO205). A) In vitro potency of Compound 1 in COLO205 cells as evaluated by ATPlite 1Step™ Perkin Elmer (performed by NTRC Oncolines). B) COLO205 cells were implanted subcutaneously in nude mice and tumors were allowed to grow to a volume of 210 mm3 followed by randomization of animals into three (3) groups (vehicle control, 75 mg/kg, 150 mg/kg Compound 1) with 12 animals per group. A Compound 1 solid dispersion was prepared prior to each dosing and administered by oral gavage two times a day (BID). Mean tumor volume of each group over time and the growth of tumor in each individual animal was graphed. For each individual animal of […] group TGI (%) was calculated based on the tumor growth inhibition of individual tumor at each given day of the study compared to the average of the group for that given day of the study. P-values were calculated using two-tailed distribution and two-sample equal variance (homoscedastic) for each group treated with Compound 1 for each given day of the study in reference to vehicle control. NS p>0.05; *p≤0.05; **p≤0.01; ***p p≤0.001; **** p≤0.0001. C) Plasma and tumor tissues from vehicle (n=11), 75 mg/kg (n=12), and 150 mg/kg (n=11) groups were harvested at the end of the study. The concentration of Compound 1 in the plasma or tumor tissue was plotted as a column plot (Average t SEM) or Scatter Plot with Median. D) Tumor tissues from vehicle (n=11), 75 mg/kg (n=12) and 150 mg/kg (n=11) groups were harvested at the end of the study when each animal was sacrificed. The level of two biomarkers, pHH3 and CCNB1 in each tissue was measured and graphed as the Min-to-Max plot and scatter plot of the level of each biomarker. The line in the scatter plot indicates the group mean. E) Body weight of each individual animal was measured on each day of the study and graphed using Graphpad Prism.
as §1
COLO205 is a colorectal adenocarcinoma (Dukes' Type D) cell line of epithelial origin isolated from human colon. COLO205 is a model that is well validated in the cancer field for in vivo efficacy evaluation of oncology therapeutics. Nude mice were implanted subcutaneously with COLO205 cells and tumors were grown to an average tumor volume of 113 mm^3 followed by randomization into three (3) groups consisting of vehicle control, 75 mg/kg and 150 mg/kg Compound 1 (12 animals per group). A Compound 1 solid dispersion was administered by oral gavage two times a day (BID). Originally, the study was planned for 28 days of dosing; however, several animals left the study after 17 days of dosing due to tumor size reaching the limit of 2000 mm^3. Therefore, only the data for the first 17 days of dosing were used for the analysis. Additionally, one animal from vehicle group and one animal from 150 mg/kg group left the study prior to day 17 and were therefore removed from the analysis. The percentage of tumor growth inhibition (TGI %) was calculated for each individual animal.

With `COc1ccccc1-c1nc(CNC(=O)c2ccccc2OC(F)F)n[nH]1` [Compound 1, 2-(difluoromethoxy)-N-[[5-(2-methoxyphenyl)-1H-1,2,4-triazol-3-yl]methyl]benzamide] the “TGI (%)” value ([1]; 75 mg/kg BID oral, day 26) was 22%, the “Level of the drug in the plasma and tumor tissue” value ([1]; 75 mg/kg to 150 mg/kg, FIG. 12C) was “dose-dependent increase” and the “Maximum TGI (%), end of the study” value ([1]; 150 mg/kg BID oral (b152 prints 150 mg/g), day 26) was 38%. The Body weight ([1]; 26 days, FIG. 12E) was “no body weight loss related to the drug”, the “Level of biomarkers CCNB1 and pHH3” value ([1]; tumor tissue, FIG. 12D) was “increase” and the “TGI (%)” value ([2]; 75 mg/kg BID oral, day 17) was 20.13%. The “Maximum TGI (%), end of the study” value ([2]; 150 mg/kg BID oral, day 17) was 35.38%, the Body weight ([2]; 150 mg/kg group, FIG. 11E) was “no significant body weight change by the end of the study” and the “Level of Compound 1 in plasma and tumor tissue” value ([2]; 75 vs 150 mg/kg, end of study, FIG. 11C) was “dose-dependent elevation”. The “cyclin B1 and phospho Histone H3 (pHH3) in tumor tissue” value ([2]; markers of M phase arrest, FIG. 11D) was “increase”.
